Measured values taken from ChEMBL document CHEMBL5032530, “Discovery of Benzocyclic Sulfone Derivatives as Potent CXCR2 Antagonists for Cancer Immunotherapy” (J Med Chem, 2021).

Target: T1, C-X-C chemokine receptor type 2 (Homo sapiens, UniProt P25025)
T1 sequence (P25025 whole entry): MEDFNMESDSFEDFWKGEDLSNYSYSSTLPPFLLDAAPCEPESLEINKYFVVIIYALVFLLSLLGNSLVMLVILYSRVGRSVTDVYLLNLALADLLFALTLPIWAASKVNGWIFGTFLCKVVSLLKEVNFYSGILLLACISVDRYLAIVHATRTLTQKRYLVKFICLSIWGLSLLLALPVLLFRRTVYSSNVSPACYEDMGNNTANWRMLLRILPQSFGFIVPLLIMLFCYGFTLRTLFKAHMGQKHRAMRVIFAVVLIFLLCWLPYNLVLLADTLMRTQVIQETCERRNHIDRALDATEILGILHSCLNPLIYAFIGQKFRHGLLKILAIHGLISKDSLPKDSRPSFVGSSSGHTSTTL
Assay: Antagonist activity at human CXCR2 expressed in HEK293 cells assessed as inhibition of CXCL8-induced beta-arrestin recruitment preincubated for 30 mins followed by addition of agonist incubated for 90 mins by beta arrestin assay
Type: functional, cell-based

SMILES | IC50
O=C(Nc1ccccc1Br)Nc1ccc2c(c1O)S(=O)(=O)CC=C2 | 49 nM
O=C(Nc1ccccc1Cl)Nc1ccc2c(c1O)S(=O)(=O)CCC2 | 210 nM
Cc1ccc(NC(=O)Nc2ccc3c(c2O)S(=O)(=O)CC=C3)cc1 | 190 nM
Cc1c(F)cccc1Nc1c(Nc2ccc3c(c2O)S(=O)(=O)CCC3)c(=O)c1=O | 1360 nM
O=C(Nc1ccc2c(c1O)S(=O)(=O)CCC2)Nc1cccc(Cl)c1Cl | 210 nM
O=C(Nc1ccccc1Cl)Nc1ccc2c(c1O)S(=O)(=O)CC=C2 | 66 nM
O=C(Nc1ccc2c(c1O)S(=O)(=O)CCC2=O)Nc1cccc(Cl)c1Cl | 400 nM
Cc1c(F)cccc1Nc1c(Nc2ccc3c(c2O)S(=O)(=O)CC=C3)c(=O)c1=O | 370 nM
O=C(Nc1ccc(Br)cc1)Nc1ccc2c(c1O)S(=O)(=O)CC=C2 | 1480 nM
O=c1c(Nc2ccc3c(c2O)S(=O)(=O)CCC3)c(Nc2cccc(F)c2Cl)c1=O | 3450 nM
O=C(Nc1ccccc1F)Nc1ccc2c(c1O)S(=O)(=O)CC=C2 | 320 nM
O=C(Nc1ccc2c(c1O)S(=O)(=O)CC=C2)Nc1cccc(F)c1Cl | 19000 nM
O=c1c(Nc2ccc3c(c2O)S(=O)(=O)CC=C3)c(Nc2cccc(Cl)c2Cl)c1=O | 2500 nM
O=c1c(Nc2ccccc2Cl)c(Nc2ccc3c(c2O)S(=O)(=O)CCC3)c1=O | 1050 nM
O=C(Nc1ccccc1F)Nc1ccc2c(c1O)S(=O)(=O)CCC2 | 1020 nM
O=c1c(Nc2ccccc2Br)c(Nc2ccc3c(c2O)S(=O)(=O)CC=C3)c1=O | 78 nM
O=C(Nc1ccccc1C(F)(F)F)Nc1ccc2c(c1O)S(=O)(=O)CC=C2 | 1600 nM
